{"source": "ChEMBL document CHEMBL1671652", "about": "“Efficacy of piperacillin combined with the Penem beta-lactamase inhibitor BLI-489 in murine models of systemic infection” (2009)", "key": {"Klebsiella pneumoniae [1]": {"test_system": "Klebsiella pneumoniae", "experiment": "Antimicrobial activity against SHV-1and SHV-5 beta-lactamase producing Klebsiella pneumoniae GAR 7978 by broth microdilution method in presence of 8:1 ratio of compound to beta-lactamase inhibitor BLI-489", "assay_type": "functional"}, "Staphylococcus aureus [2]": {"test_system": "Staphylococcus aureus", "experiment": "Antimicrobial activity against penicillinase producing Staphylococcus aureus GC 6468 by broth microdilution method", "assay_type": "functional"}, "Escherichia coli [3]": {"test_system": "Escherichia coli", "experiment": "Antimicrobial activity against TEM-1 beta-lactamase producing Escherichia coli GC 6265 infected in CD-1 mouse treated 30 mins postinfection in presence of 4:1 ratio of compound to beta-lactamase inhibitor BLI-489", "assay_type": "functional", "settings": "GC 6265, 0.5 h"}, "Escherichia coli [4]": {"test_system": "Escherichia coli", "experiment": "Antimicrobial activity against ACT-1 beta-lactamase producing Escherichia coli GC 2814 by broth microdilution method in presence of beta-lactamase inhibitor Tazobactam", "assay_type": "functional"}, "Enterobacter cloacae [5]": {"test_system": "Enterobacter cloacae", "experiment": "Antimicrobial activity against AmpC beta-lactamase producing Enterobacter cloacae GC 4142 infected in CD-1 mouse treated 30 and 150 mins postinfection in presence of beta-lactamase inhibitor Tazobactam", "assay_type": "functional"}, "Escherichia coli [6]": {"test_system": "Escherichia coli", "experiment": "Antimicrobial activity against TEM-1 beta-lactamase producing Escherichia coli GC 6265 infected in CD-1 mouse treated 30 mins postinfection in presence of 10:1 ratio of compound to beta-lactamase inhibitor BLI-489", "assay_type": "functional", "settings": "GC 6265, 0.5 h"}, "Enterobacter cloacae [7]": {"test_system": "Enterobacter cloacae", "experiment": "Antimicrobial activity against AmpC beta-lactamase producing Enterobacter cloacae GC 4142 infected in CD-1 mouse treated 30 and 150 min postinfection in presence of 12:1 ratio of compound to beta-lactamase inhibitor BLI-489", "assay_type": "functional"}, "Escherichia coli [8]": {"test_system": "Escherichia coli", "experiment": "Antimicrobial activity against TEM-10 beta-lactamase producing Escherichia coli GC 2022 by broth microdilution method", "assay_type": "functional"}, "Enterobacter cloacae [9]": {"test_system": "Enterobacter cloacae", "experiment": "Antimicrobial activity against AmpC beta-lactamase producing Enterobacter cloacae GC 4142 infected in CD-1 mouse treated 30 and 150 min postinfection in presence of 8:1 ratio of compound to beta-lactamase inhibitor BLI-489", "assay_type": "functional"}, "Enterobacter cloacae [10]": {"test_system": "Enterobacter cloacae", "experiment": "Antimicrobial activity against AmpC beta-lactamase producing Enterobacter cloacae GC 4142 infected in CD-1 mouse treated 30 and 150 min postinfection in presence of 6:1 ratio of compound to beta-lactamase inhibitor BLI-489", "assay_type": "functional"}, "Pseudomonas aeruginosa [11]": {"test_system": "Pseudomonas aeruginosa", "experiment": "Antimicrobial activity against AmpC beta-lactamase producing Pseudomonas aeruginosa GC 1764 by broth microdilution method in presence of 8:1 ratio of compound to beta-lactamase inhibitor BLI-489", "assay_type": "functional"}, "Staphylococcus aureus [12]": {"test_system": "Staphylococcus aureus", "experiment": "Antimicrobial activity against penicillinase producing Staphylococcus aureus GC 6468 by broth microdilution method in presence of 8:1 ratio of compound to beta-lactamase inhibitor BLI-489", "assay_type": "functional"}, "Klebsiella pneumoniae [13]": {"test_system": "Klebsiella pneumoniae", "experiment": "Antimicrobial activity against SHV-1and SHV-5 beta-lactamase producing Klebsiella pneumoniae GAR 7978 by broth microdilution method in presence of beta-lactamase inhibitor Tazobactam", "assay_type": "functional"}, "Escherichia coli [14]": {"test_system": "Escherichia coli", "experiment": "Antimicrobial activity against OXA-1 beta-lactamase producing Escherichia coli GAR 5946 infected in CD-1 mouse treated 30 and 150 mins postinfection", "assay_type": "functional"}, "Escherichia coli [15]": {"test_system": "Escherichia coli", "experiment": "Antimicrobial activity against TEM-10 beta-lactamase producing Escherichia coli GC 2022 by broth microdilution method in presence of 8:1 ratio of compound to beta-lactamase inhibitor BLI-489", "assay_type": "functional"}, "Escherichia coli [16]": {"test_system": "Escherichia coli", "experiment": "Antimicrobial activity against TEM-10 beta-lactamase producing Escherichia coli GC 2022 by broth microdilution method in presence of beta-lactamase inhibitor Tazobactam", "assay_type": "functional"}, "Escherichia coli [17]": {"test_system": "Escherichia coli", "experiment": "Antimicrobial activity against TEM-10 beta-lactamase producing Escherichia coli GC 2022 infected in CD-1 mouse treated 30 mins postinfection in presence of beta-lactamase inhibitor Tazobactam", "assay_type": "functional", "settings": "GC 2022, 0.5 h"}, "Escherichia coli [18]": {"test_system": "Escherichia coli", "experiment": "Antimicrobial activity against TEM-1 beta-lactamase producing Escherichia coli GC 6265 infected in CD-1 mouse treated 30 mins postinfection", "assay_type": "functional", "settings": "GC 6265, 0.5 h"}, "Escherichia coli [19]": {"test_system": "Escherichia coli", "experiment": "Antimicrobial activity against TEM-10 beta-lactamase producing Escherichia coli GC 2022 infected in CD-1 mouse treated 30 mins postinfection", "assay_type": "functional", "settings": "GC 2022, 0.5 h"}, "Salmonella typhimurium": {"test_system": "Salmonella typhimurium", "experiment": "Antimicrobial activity against CTX-M-5 beta-lactamase producing Salmonella enterica serovar Typhimurium GC 4195 by broth microdilution method in presence of beta-lactamase inhibitor Tazobactam", "assay_type": "functional, Salmonella enterica subsp. enterica serovar Typhimurium"}, "Escherichia coli [20]": {"test_system": "Escherichia coli", "experiment": "Antimicrobial activity against ACT-1 beta-lactamase producing Escherichia coli GC 2814 infected in CD-1 mouse treated 30 and 150 mins postinfection in presence of 8:1 ratio of compound to beta-lactamase inhibitor BLI-489", "assay_type": "functional"}, "Staphylococcus aureus [21]": {"test_system": "Staphylococcus aureus", "experiment": "Antimicrobial activity against penicillinase producing Staphylococcus aureus GC 6468 by broth microdilution method in presence of beta-lactamase inhibitor Tazobactam", "assay_type": "functional"}, "Pseudomonas aeruginosa [22]": {"test_system": "Pseudomonas aeruginosa", "experiment": "Antimicrobial activity against AmpC beta-lactamase producing Pseudomonas aeruginosa GC 1764 infected in CD-1 mouse treated 30 and 150 mins postinfection", "assay_type": "functional"}, "Enterobacter cloacae [23]": {"test_system": "Enterobacter cloacae", "experiment": "Antimicrobial activity against AmpC beta-lactamase producing Enterobacter cloacae GC 4142 infected in CD-1 mouse treated 30 and 150 min postinfection", "assay_type": "functional"}, "Escherichia coli [24]": {"test_system": "Escherichia coli", "experiment": "Antimicrobial activity against TEM-1 beta-lactamase producing Escherichia coli GC 6265 by broth microdilution method in presence of beta-lactamase inhibitor Tazobactam", "assay_type": "functional"}, "Escherichia coli [25]": {"test_system": "Escherichia coli", "experiment": "Antimicrobial activity against ACT-1 beta-lactamase producing Escherichia coli GC 2814 infected in CD-1 mouse treated 30 and 150 mins postinfection", "assay_type": "functional"}, "Escherichia coli [26]": {"test_system": "Escherichia coli", "experiment": "Antimicrobial activity against TEM-1 beta-lactamase producing Escherichia coli GC 6265 infected in CD-1 mouse treated 30 mins postinfection in presence of beta-lactamase inhibitor Tazobactam", "assay_type": "functional", "settings": "GC 6265, 0.5 h"}, "Escherichia coli [27]": {"test_system": "Escherichia coli", "experiment": "Antimicrobial activity against ACT-1 beta-lactamase producing Escherichia coli GC 2814 by broth microdilution method in presence of 8:1 ratio of compound to beta-lactamase inhibitor BLI-489", "assay_type": "functional"}, "Enterobacter cloacae [28]": {"test_system": "Enterobacter cloacae", "experiment": "Antimicrobial activity against AmpC beta-lactamase producing Enterobacter cloacae GC 4142 infected in CD-1 mouse treated 30 and 150 min postinfection in presence of 2:1 ratio of compound to beta-lactamase inhibitor BLI-489", "assay_type": "functional"}, "Klebsiella pneumoniae [29]": {"test_system": "Klebsiella pneumoniae", "experiment": "Antimicrobial activity against SHV-11 beta-lactamase producing Klebsiella pneumoniae GAR 7693 by broth microdilution method in presence of beta-lactamase inhibitor Tazobactam", "assay_type": "functional"}, "Escherichia coli [30]": {"test_system": "Escherichia coli", "experiment": "Antimicrobial activity against OXA-1 beta-lactamase producing Escherichia coli GAR 5946 infected in CD-1 mouse treated 30 and 150 mins postinfection in presence of beta-lactamase inhibitor Tazobactam", "assay_type": "functional"}, "Enterobacter cloacae [31]": {"test_system": "Enterobacter cloacae", "experiment": "Antimicrobial activity against AmpC beta-lactamase producing Enterobacter cloacae GC 4142 by broth microdilution method", "assay_type": "functional"}, "Pseudomonas aeruginosa [32]": {"test_system": "Pseudomonas aeruginosa", "experiment": "Antimicrobial activity against AmpC beta-lactamase producing Pseudomonas aeruginosa GC 1764 by broth microdilution method in presence of beta-lactamase inhibitor Tazobactam", "assay_type": "functional"}, "Escherichia coli [33]": {"test_system": "Escherichia coli", "experiment": "Antimicrobial activity against TEM-1 beta-lactamase producing Escherichia coli GC 6265 infected in CD-1 mouse treated 30 mins postinfection in presence of 2:1 ratio of compound to beta-lactamase inhibitor BLI-489", "assay_type": "functional", "settings": "GC 6265, 0.5 h"}, "Staphylococcus aureus [34]": {"test_system": "Staphylococcus aureus", "experiment": "Antimicrobial activity against penicillinase producing Staphylococcus aureus GC 6468 infected in CD-1 mouse treated 30 and 150 mins postinfection", "assay_type": "functional"}, "Klebsiella pneumoniae [35]": {"test_system": "Klebsiella pneumoniae", "experiment": "Antimicrobial activity against SHV-1and SHV-5 beta-lactamase producing Klebsiella pneumoniae GAR 7978 by broth microdilution method", "assay_type": "functional"}}, "data": [{"smiles": "CCN1CCN(C(=O)N[C@@H](C(=O)N[C@@H]2C(=O)N3[C@@H]2SC(C)(C)[C@@H]3C(=O)O)c2ccccc2)C(=O)C1=O", "note": "[PIPERACILLIN]", "values": [{"measurement": "MIC", "setting": "Klebsiella pneumoniae [1]", "result": 8, "unit": "µg/mL"}, {"measurement": "MIC", "setting": "Staphylococcus aureus [2]", "result": "> 64", "unit": "µg/mL"}, {"measurement": "ED50", "setting": "Escherichia coli [3]", "result": 12, "unit": "mg/kg"}, {"measurement": "MIC", "setting": "Escherichia coli [4]", "result": "> 64", "unit": "µg/mL"}, {"measurement": "ED50", "setting": "Enterobacter cloacae [5]", "result": 71, "unit": "mg/kg"}, {"measurement": "ED50", "setting": "Escherichia coli [6]", "result": 12, "unit": "mg/kg"}, {"measurement": "ED50", "setting": "Enterobacter cloacae [7]", "result": 60, "unit": "mg/kg"}, {"measurement": "MIC", "setting": "Escherichia coli [8]", "result": 1, "unit": "µg/mL"}, {"measurement": "ED50", "setting": "Enterobacter cloacae [9]", "result": 32, "unit": "mg/kg"}, {"measurement": "ED50", "setting": "Enterobacter cloacae [10]", "result": 30, "unit": "mg/kg"}, {"measurement": "MIC", "setting": "Pseudomonas aeruginosa [11]", "result": 4, "unit": "µg/mL"}, {"measurement": "MIC", "setting": "Staphylococcus aureus [12]", "result": 1, "unit": "µg/mL"}, {"measurement": "MIC", "setting": "Klebsiella pneumoniae [13]", "result": "> 64", "unit": "µg/mL"}, {"measurement": "ED50", "setting": "Escherichia coli [14]", "result": 980, "unit": "mg/kg"}, {"measurement": "MIC", "setting": "Escherichia coli [15]", "result": "> 64", "unit": "µg/mL"}, {"measurement": "MIC", "setting": "Escherichia coli [16]", "result": 2, "unit": "µg/mL"}, {"measurement": "ED50", "setting": "Escherichia coli [17]", "result": 25, "unit": "mg/kg"}, {"measurement": "ED50", "setting": "Escherichia coli [18]", "result": 176, "unit": "mg/kg"}, {"measurement": "ED50", "setting": "Escherichia coli [19]", "result": 301, "unit": "mg/kg"}, {"measurement": "MIC", "setting": "Salmonella typhimurium", "result": "> 64", "unit": "µg/mL"}, {"measurement": "ED50", "setting": "Escherichia coli [20]", "result": 13, "unit": "mg/kg"}, {"measurement": "MIC", "setting": "Staphylococcus aureus [21]", "result": 1, "unit": "µg/mL"}, {"measurement": "ED50", "setting": "Pseudomonas aeruginosa [22]", "result": 980, "unit": "mg/kg"}, {"measurement": "ED50", "setting": "Enterobacter cloacae [23]", "result": 282, "unit": "mg/kg"}, {"measurement": "MIC", "setting": "Escherichia coli [24]", "result": 128, "unit": "µg/mL"}, {"measurement": "ED50", "setting": "Escherichia coli [25]", "result": 103, "unit": "mg/kg"}, {"measurement": "ED50", "setting": "Escherichia coli [26]", "result": 11, "unit": "mg/kg"}, {"measurement": "MIC", "setting": "Escherichia coli [27]", "result": "> 64", "unit": "µg/mL"}, {"measurement": "ED50", "setting": "Enterobacter cloacae [28]", "result": 31, "unit": "mg/kg"}, {"measurement": "MIC", "setting": "Klebsiella pneumoniae [29]", "result": "> 64", "unit": "µg/mL"}, {"measurement": "ED50", "setting": "Escherichia coli [30]", "result": 270, "unit": "mg/kg"}, {"measurement": "MIC", "setting": "Enterobacter cloacae [31]", "result": 8, "unit": "µg/mL"}, {"measurement": "MIC", "setting": "Pseudomonas aeruginosa [32]", "result": 32, "unit": "µg/mL"}, {"measurement": "ED50", "setting": "Escherichia coli [33]", "result": 8.5, "unit": "mg/kg"}, {"measurement": "ED50", "setting": "Staphylococcus aureus [34]", "result": 418, "unit": "mg/kg"}, {"measurement": "MIC", "setting": "Klebsiella pneumoniae [35]", "result": "> 64", "unit": "µg/mL"}]}]}
